Where two headings read alike, the source gives them in different places.
How the values were obtained:
Type in all cases: cell-based
[1] = system: human Burkitt's lymphoma cell line Namalwa; assay: Caspase cascade activation (EC50), Namalwa; settings: Homo sapiens, Burkitts lymphoma cell, Namalwa cells
Procedure: (§1) Human breast cancer cell lines T-47D, human hepatocellular carcinoma cell line SNU398, human colon carcinoma cell line HCT116, human cancer cell line H1299, human Burkitt's lymphoma cell line Namalwa, human lymphoma cell line Raji, and human B cell lymphoblastoid cell line Ramos were grown according to media component mixtures designated by American Type Culture Collection+10% FCS (Invitrogen Corporation), in a 5% CO2-95% humidity incubator at 37° C. T-47D and H1299 cells were maintained at a cell density between 50 and 80% confluency at a cell density of 0.1 to 0.6×10^6 cells/mL. Cells were harvested at 600×g and resuspended at 0.65×10^6 cells/mL into appropriate media+10% FCS. An aliquot of 22.5 μL of cells was added to a well of a 384-well microtiter plate containing 2.5 μL of a 10% DMSO in RPMI-1640 media solution containing 0.16 to 100 μM of 3-(2-chlorophenyl)-6-(3,4-methylenedioxyphenyl)-7H-[1,2,4]triazolo[3,4-b][1,3,4]thiadiazine or other test compound (0.016 to 10 μM final). An aliquot of 22.5 μL of cells was added to a well of a 384-well microtiter plate containing 2.5 μL of a 10% DMSO in RPMI-1640 media solution without test compound as the control sample. The samples were mixed by agitation and then incubated at 37° C. for 48 h in a 5% CO2-95% humidity incubator. After incubation, the samples were removed from the incubator and 25 μL of a solution containing 14 μM of N—(Ac-DEVD)-N′-ethoxycarbonyl-R110 (SEQ ID No.:1) fluorogenic substrate (Cytovia, Inc.; WO99/18856), 20% sucrose (Sigma), 20 mM DTT (Sigma), 200 mM NaCl (Sigma), 40 mM Na PIPES buffer pH 7.2 (Sigma), and 500 μg/mL lysolecithin (Calbiochem) was added. The samples were mixed by agitation and incubated at room temperature. Using a fluorescent plate reader (Model SPECTRAfluor Plus, Tecan), an initial reading (T=0) was made approximately 1-2 min after addition of the substrate solution, employing excitation at 485 nm and emission at 530 nm, to determine the background fluorescence of the control sample. After the 3 h incubation, the samples were read for fluorescence as above (T=3 h). Calculation: The Relative Fluorescence Unit values (RFU) were used to calculate the sample readings as follows: RFU(T=3H)−Control RFU(T=0)=Net RFU(T=3h) The activity of caspase cascade activation was determined by the ratio of the net RFU value for 3-(2-chlorophenyl)-6-(3,4-methylenedioxyphenyl)-7H-[1,2,4]triazolo[3,4-b][1,3,4]thiadiazine (Example P) or other test compound to that of control samples. The EC50 (nM) was determined by a sigmoidal dose-response calculation (Prism 3.0, GraphPad Software Inc.).

[2] = system: human hepatocellular carcinoma cell line SNU398; assay: Caspase cascade activation (EC50), SNU398; settings: Homo sapiens, SNU-398, SNU398 cells
Procedure: as §1

[3] = system: human breast cancer cell line T-47D; assay: Caspase cascade activation (EC50), T-47D; settings: Homo sapiens, T47D cells
Procedure: as §1

[4] = system: human colon carcinoma cell line HCT116; assay: Caspase cascade activation (EC50), HCT116; settings: Homo sapiens, HCT-116, HCT116 cells
Procedure: as §1

[5] = caspase cascade activation, read-out: caspase potency (EC50) Namalwa
[6] = caspase cascade activation, read-out: caspase potency (EC50) SNU398
[7] = caspase cascade activation, read-out: caspase potency (EC50) T47D
[8] = caspase cascade activation, read-out: caspase potency (EC50) HCT116
[9] = read-out: Caspase potency (EC50) Namalwa
[10] = read-out: Caspase potency (EC50) SNU398
[11] = read-out: Caspase potency (EC50) T47D
[12] = read-out: Caspase potency (EC50) HCT116

Compound COc1ccccc1-c1nnc2n1N=C(c1ccc(Cl)c(Cl)c1)CS2 [Example Q3] has an EC50 [1, 5] of 292 nM, an EC50 [2, 6] of over 10000 nM and an EC50 [3, 7] of over 10000 nM. For the same compound, the EC50 [4, 8] was over 10000 nM.

For COc1cc(-c2nnc3n2N=C(c2ccc(N(C)C)cc2)CS3)cc(OC)c1OC [Example 67, 6-(4-Dimethylaminophenyl)-3-(3,4,5-trimethoxyphenyl)-7H-[1,2,4]triazolo[3,4-b][1,3,4]thiadiazine], the EC50 [1, 5] was 61 nM, the EC50 [2, 6] was 43 nM and the EC50 [3, 7] was 175 nM. It also gave an EC50 [4, 8] of 58 nM.

For CCOc1ccc(C2=Nn3c(nnc3-c3cccc(OCC)c3)SC2)cc1 [Example G2, 3-(3-Ethoxyphenyl)-6-(4-ethoxyphenyl)-7H-[1,2,4]triazolo[3,4-b][1,3,4]thiadiazine], the EC50 [2, 6] was 2550 nM, the EC50 [3, 7] was 6370 nM and the EC50 [4, 8] was over 10000 nM.

Compound COc1ccccc1-c1nnc2n1N=C(c1ccc(C)cc1C)CS2 [Example 39, 3-(2-Methoxyphenyl)-6-(2,4-dimethylphenyl)-7H-[1,2,4]triazolo[3,4-b][1,3,4]thiadiazine] has an EC50 [1, 5] of 1280 nM, an EC50 [2, 6] of 943 nM and an EC50 [3, 7] of 2700 nM. The EC50 [4, 8] was 2580 nM.

Work on CCN(CC)S(=O)(=O)c1ccc(C2=Nn3c(nnc3-c3ccccc3C)SC2)cc1 [Example 52, 6-(4-(N,N-Diethylaminosulfonyl)phenyl)-3-(2-methylphenyl)-7H-[1,2,4]triazolo[3,4-b][1,3,4]thiadiazine] yielded an EC50 [1, 5] of over 10000 nM, an EC50 [2, 6] of over 10000 nM and an EC50 [3, 7] of over 10000 nM. It also gave an EC50 [4, 8] of over 10000 nM.

Compound COc1ccccc1-c1nnc2n1N=C(c1ccc(Cl)c([N+](=O)[O-])c1)CS2 [Example 55, 6-(4-Chloro-3-nitrophenyl)-3-(2-methoxyphenyl)-7H-[1,2,4]triazolo[3,4-b][1,3,4]thiadiazine] has an EC50 [1, 5] of over 10000 nM, an EC50 [2, 6] of 1870 nM and an EC50 [3, 7] of 2040 nM. It also gave an EC50 [4, 8] of over 10000 nM.

Work on COc1ccccc1-c1nnc2n1N=C(c1cc(Br)c3c(c1)CCN3)CS2 [Example 96, 6-(7-Bromoindolin-5-yl)-3-(2-methoxyphenyl)-7H-[1,2,4]triazolo[3,4-b][1,3,4]thiadiazine] yielded an EC50 [1, 9] of 31 nM, an EC50 [2, 10] of 35 nM and an EC50 [3, 11] of 136 nM. For the same compound, the EC50 [4, 12] was 79 nM.

Cc1ccc(C2=Nn3c(nnc3-c3cc([N+](=O)[O-])cn3C)SC2)cc1 [Example 95, 3-(1-Methyl-4-nitro-1H-pyrrol-2-yl)-6-(4-methylphenyl)-7H-[1,2,4]triazolo[3,4-b][1,3,4]thiadiazine] gave an EC50 [1, 9] of 328 nM, an EC50 [2, 10] of 478 nM and an EC50 [3, 11] of 2700 nM. For the same compound, the EC50 [4, 12] was 693 nM.

COc1ccccc1-c1nnc2n1N=C(c1ccc(C#N)cc1)CS2 [Example 87, 6-(4-Cyanophenyl)-3-(2-methoxyphenyl)-7H-[1,2,4]triazolo[3,4-b][1,3,4]thiadiazine] was tested, and the EC50 [1, 5] was 2280 nM, the EC50 [2, 6] was 2550 nM and the EC50 [3, 7] was 3330 nM. It also gave an EC50 [4, 8] of 5090 nM.

In the case of COc1cccc(-c2nnc3n2N=C(c2ccc(Br)cc2)CS3)c1 [Example F2, 3-(3-Methoxyphenyl)-6-(4-bromophenyl)-7H-[1,2,4]triazolo[3,4-b][1,3,4]thiadiazine], the EC50 [2, 6] is reported as 2700 nM, the EC50 [3, 7] is reported as 5400 nM and the EC50 [4, 8] is reported as over 10000 nM.

COc1ccccc1-c1nnc2n1N=C(c1ccc(NC(C)=O)c([N+](=O)[O-])c1)CS2 [Example 56, 6-(4-Acetamido-3-nitrophenyl)-3-(2-methoxyphenyl)-7H-[1,2,4]triazolo[3,4-b][1,3,4]thiadiazine] showed an EC50 [1, 5] of 270 nM, an EC50 [2, 6] of 328 nM and an EC50 [3, 7] of 476 nM. It also gave an EC50 [4, 8] of 506 nM.

COc1ccccc1-c1n[nH]c2nc(=O)c(-c3ccc(C)cc3)nn12 [Example 38, 3-(2-Methoxyphenyl)-6-(4-methylphenyl)-1H-[1,2,4]triazolo[4,3-b][1,2,4]triazin-7-one] gave an EC50 [1, 5] of over 10000 nM, an EC50 [2, 6] of over 10000 nM and an EC50 [3, 7] of over 10000 nM. The EC50 [4, 8] was over 10000 nM.

For COc1ccccc1-c1nnc2n1N=C(c1ccc([N+](=O)[O-])c(OC)c1)CS2 [Example 45, 6-(3-Methoxy-4-nitrophenyl)-3-(2-methoxyphenyl)-7H-[1,2,4]triazolo[3,4-b][1,3,4]thiadiazine], the EC50 [1, 5] was over 10000 nM, the EC50 [2, 6] was over 10000 nM and the EC50 [3, 7] was over 10000 nM. The EC50 [4, 8] was over 10000 nM.

In the case of COc1ccccc1-c1nnc2n1NC(c1ccc(C)cc1)CS2 (stereo not drawn) [Example 88, 5,6-Dihydro-3-(2-methoxyphenyl)-6-(4-methylphenyl)-7H-[1,2,4]triazolo[3,4-b][1,3,4]thiadiazine], the EC50 [1, 5] is reported as 1530 nM, the EC50 [2, 6] is reported as 2530 nM and the EC50 [3, 7] is reported as 5330 nM. For the same compound, the EC50 [4, 8] was 2800 nM.

With COc1ccccc1-c1nnc2n1N=C(c1ccc(C(=O)O)cc1)CS2 [Example 89, 6-(4-Carboxyphenyl)-3-(2-Methoxyphenyl)-7H-[1,2,4]triazolo[3,4-b][1,3,4]thiadiazine] the EC50 [1, 5] was over 10000 nM, the EC50 [2, 6] was over 10000 nM and the EC50 [3, 7] was over 10000 nM. For the same compound, the EC50 [4, 8] was over 10000 nM.

Cc1ccc(C2=Nn3c(nnc3-c3ccccc3[S+](C)[O-])SC2)cc1 (stereo not drawn) [Example 72, 3-(2-Methylsulfinylphenyl)-6-(4-methylphenyl)-7H-[1,2,4]triazolo[3,4-b][1,3,4]thiadiazine] gave an EC50 [1, 5] of over 10000 nM, an EC50 [2, 6] of over 10000 nM and an EC50 [3, 7] of over 10000 nM. For the same compound, the EC50 [4, 8] was over 10000 nM.

COc1cc(OC)cc(-c2nnc3n2N=C(c2ccc4[nH]c(=O)oc4c2)CS3)c1 [Example 34, 6-(2,3-Dihydro-2-oxobenzo[d]oxazol-6-yl)-3-(3,5-dimethoxyphenyl)-7H-[1,2,4]triazolo[3,4-b][1,3,4]thiadiazine] gave an EC50 [1, 5] of 4930 nM, an EC50 [2, 6] of 4920 nM and an EC50 [3, 7] of 4600 nM. For the same compound, the EC50 [4, 8] was 5090 nM.

COc1cc(-c2n[nH]c3nc(=O)c(-c4ccc(C)cc4)nn23)cc(OC)c1OC [Example 37, 3-(3,4,5-Trimethoxyphenyl)-6-(4-methylphenyl)-1H-[1,2,4]triazolo[4,3-b][1,2,4]triazin-7-one] was tested, and the EC50 [1, 5] was over 10000 nM, the EC50 [2, 6] was 5040 nM and the EC50 [3, 7] was 5830 nM. For the same compound, the EC50 [4, 8] was over 10000 nM.

Work on COc1ccccc1-c1nnc2n1N=C(c1cccc(C)c1)CS2 [Example 82, 3-(2-Methoxyphenyl)-6-(3-methylphenyl)-7H-[1,2,4]triazolo[3,4-b][1,3,4]thiadiazine] yielded an EC50 [1, 5] of 497 nM, an EC50 [2, 6] of 500 nM and an EC50 [3, 7] of 605 nM. It also gave an EC50 [4, 8] of 370 nM.

COc1ccccc1-c1nnc2n1N=C(c1ccc(OC(F)(F)F)cc1)CS2 [Example 50, 3-(2-Methoxyphenyl)-6-(4-(trifluoromethoxy)phenyl)-7H-[1,2,4]triazolo[3,4-b][1,3,4]thiadiazine] showed an EC50 [1, 5] of 500 nM, an EC50 [2, 6] of 530 nM and an EC50 [3, 7] of 549 nM. The EC50 [4, 8] was 564 nM.

COc1cccc(-c2nnc3n2N=C(c2ccc(O)c(O)c2)CS3)c1 [Example D2, 3-(3-Methoxyphenyl)-6-(3,4-dihydroxyphenyl)-7H-[1,2,4]triazolo[3,4-b][1,3,4]thiadiazine] was tested, and the EC50 [2, 6] was 112 nM, the EC50 [3, 7] was 687 nM and the EC50 [4, 8] was 525 nM.

Compound COc1ccc(-c2nn3c(-c4ccccc4OC)nnc3[nH]c2=O)cc1 [Example 36, 3-(2-Methoxyphenyl)-6-(4-methoxyphenyl)-[1,2,4]triazolo[4,3-b][1,2,4]triazin-7(8H)-one] has an EC50 [1, 5] of over 10000 nM, an EC50 [3, 7] of over 10000 nM and an EC50 [4, 8] of over 10000 nM.

For COc1ccc(C2=Nn3c(nnc3-c3ccccc3Cl)SC2)cc1 [Example C2, 3-(2-Chlorophenyl)-6-(4-methoxyphenyl)-7H-[1,2,4]triazolo[3,4-b][1,3,4]thiadiazine], the EC50 [2, 6] was 60 nM, the EC50 [3, 7] was 395 nM and the EC50 [4, 8] was 177 nM.

In the case of CCOc1ccc(C2=Nn3c(nnc3-c3cccc(Cl)c3)SC2)cc1 [Example E2, 3-(3-Chlorophenyl)-6-(4-ethoxyphenyl)-7H-[1,2,4]triazolo[3,4-b][1,3,4]thiadiazine], the EC50 [2, 6] is reported as 429 nM, the EC50 [3, 7] is reported as 1100 nM and the EC50 [4, 8] is reported as 681 nM.

— patent US20080045514A1 (Cytovia, Inc., priority 2006, published 2008)
